Tests used:
[1] = molecular target: T1, Vitamin D3 receptor (Homo sapiens, UniProt P11473); assay: Agonist activity at human VDR expressed in HOS cells co-expressing human RXR by Dual-Glo luciferase reporter gene assay; type: cell-based
T1 sequence (P11473 whole entry): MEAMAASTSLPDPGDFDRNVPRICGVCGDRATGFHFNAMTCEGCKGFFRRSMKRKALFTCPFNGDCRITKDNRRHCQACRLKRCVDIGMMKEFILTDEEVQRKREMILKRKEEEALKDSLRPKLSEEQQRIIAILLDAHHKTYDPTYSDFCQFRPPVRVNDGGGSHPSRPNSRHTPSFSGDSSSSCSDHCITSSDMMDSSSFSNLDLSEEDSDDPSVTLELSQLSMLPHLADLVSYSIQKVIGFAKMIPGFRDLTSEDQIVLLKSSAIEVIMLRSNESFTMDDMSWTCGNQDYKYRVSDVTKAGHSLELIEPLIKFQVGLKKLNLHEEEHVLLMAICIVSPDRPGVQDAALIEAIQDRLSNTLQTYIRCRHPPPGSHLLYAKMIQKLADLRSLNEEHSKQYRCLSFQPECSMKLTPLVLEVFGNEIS

[2] = molecular target: T2, Vitamin D3 receptor (Homo sapiens) (UniProt P11473); assay: Agonist activity at human VDR expressed in HOS cells co-expressing human RXR at 0.00001 to 10 uM by Dual-Glo luciferase reporter gene assay relative to 1alpha,25(OH)2D3; type: cell-based
T2 sequence (whole entry): T1 sequence (P11473 whole entry)

Compound | EC50 [1] [nM] | Emax [2] [%]
CCC(CC)(c1ccc(OCC(CO)CO)c(C)c1)c1ccc(OCC(C)(C)O)c(C)c1 | 76.5 | 91
CCC(CC)(c1ccc(OC[C@@H](O)CO)c(C)c1)c1ccc(OCC(C)(C)O)c(C)c1 | 163 | 67
CCC(CC)(c1ccc(OCCC(C)(C)O)c(C)c1)c1ccc(OCC(CO)CO)c(C)c1 | 76.9 | 91

These reach a lower EC50 [1]. Values come first.

EC50 [1] [nM] | Emax [2] [%] | Compound
41.7 | 100 | CCC(CC)(c1ccc(OCCC(C)(C)O)c(C)c1)c1ccc(OC[C@@H](O)CO)c(C)c1
18 | 90 | CCC(O)(CC)COc1ccc(C(CC)(CC)c2ccc(OC[C@@H](O)CO)c(C)c2)cc1C
17.2 | 100 | CCC(O)(CC)COc1ccc(C(CC)(CC)c2ccc(OC(CO)CO)c(C)c2)cc1C
9.26 | 100 | CCC(O)(CC)COc1ccc(C(CC)(CC)c2ccc(OCC(CO)CO)c(C)c2)cc1C
